Measured values reported in the NIST ThermoML archive (doi:10.1016/j.fluid.2007.09.021).
Numbers after ± are expanded uncertainties. Each block holds one molecule with its values, some of them ahead of it.

Test: activity coefficient (dimensionless); of the first substance listed, at infinite dilution; xn = mol fraction of the nth substance listed
Conditions: Liquid, x1 = 0
[1] = 398.15 K, Differential ebulliometry
[2] = 409.15 K, Differential ebulliometry
[3] = 343.15 K, Differential ebulliometry
[4] = 368.15 K, Differential ebulliometry
[5] = 378.15 K, Differential ebulliometry
[6] = 388.15 K, Differential ebulliometry

activity coefficient (303.15 K, Chromatography): 11.8 ± 0.6
activity coefficient (313.15 K, Chromatography): 9.49 ± 0.5
activity coefficient (323.15 K, Chromatography): 7.63 ± 0.39
activity coefficient [1]: 2.55 ± 0.26
activity coefficient [2]: 2.24 ± 0.14
Compound: CCCCO [butan-1-ol] + CCc1ccccc1

activity coefficient (293.15 K, Chromatography): 20.1 ± 0.8
activity coefficient (303.15 K, Chromatography): 16.2 ± 0.7
activity coefficient (313.15 K, Chromatography): 13.7 ± 0.7
activity coefficient (323.15 K, Chromatography): 11.2 ± 0.4
Compound: CCO [ethanol] + CCc1ccccc1

activity coefficient (323.15 K, Chromatography): 2.77 ± 0.11
Compound: CCc1ccccc1 [ethylbenzene] + CCCCCCO

activity coefficient (323.15 K, Chromatography): 3.37 ± 0.12
Compound: CCc1ccccc1 [ethylbenzene] + CCCCCO

activity coefficient (323.15 K, Chromatography): 3.84 ± 0.15
Compound: CCc1ccccc1 [ethylbenzene] + CCCCO

activity coefficient [3]: 4.48 ± 0.08
activity coefficient (353.15 K, Differential ebulliometry): 4.21 ± 0.08
activity coefficient (363.15 K, Differential ebulliometry): 3.98 ± 0.08
activity coefficient (370.15 K, Differential ebulliometry): 3.8 ± 0.08
Compound: CCc1ccccc1 [ethylbenzene] + CCCO

activity coefficient (323.15 K, Differential ebulliometry): 6.86 ± 0.14
activity coefficient (333.15 K, Differential ebulliometry): 6.53 ± 0.14
activity coefficient [3]: 6.19 ± 0.12
activity coefficient (351.15 K, Differential ebulliometry): 5.9 ± 0.12
Compound: CCc1ccccc1 [ethylbenzene] + CCO

activity coefficient (308.15 K, Differential ebulliometry): 12.8 ± 0.2
activity coefficient (318.15 K, Differential ebulliometry): 12.2 ± 0.2
activity coefficient (328.15 K, Differential ebulliometry): 11.8 ± 0.2
activity coefficient (337.15 K, Differential ebulliometry): 11.4 ± 0.2
Compound: CCc1ccccc1 [ethylbenzene] + CO

activity coefficient [4]: 3.25 ± 0.06
activity coefficient [5]: 2.95 ± 0.18
activity coefficient [6]: 2.62 ± 0.06
activity coefficient [1]: 2.43 ± 0.1
activity coefficient [2]: 2.11 ± 0.04
Compound: CCCCCCO [hexan-1-ol] + CCc1ccccc1

activity coefficient (293.15 K, Chromatography): 26.2 ± 1.3
activity coefficient (303.15 K, Chromatography): 21.4 ± 1.1
activity coefficient (313.15 K, Chromatography): 18 ± 1
activity coefficient (323.15 K, Chromatography): 15 ± 0.8
Compound: CO [methanol] + CCc1ccccc1

activity coefficient [4]: 3.62 ± 0.08
activity coefficient [5]: 3.19 ± 0.06
activity coefficient [6]: 2.89 ± 0.06
activity coefficient [1]: 2.57 ± 0.06
activity coefficient [2]: 2.29 ± 0.06
Compound: CCCCCO [pentan-1-ol] + CCc1ccccc1

activity coefficient (293.15 K, Chromatography): 15.8 ± 0.8
activity coefficient (303.15 K, Chromatography): 12.9 ± 0.7
activity coefficient (313.15 K, Chromatography): 10.3 ± 0.7
activity coefficient (323.15 K, Chromatography): 8.7 ± 0.44
Compound: CCCO [propan-1-ol] + CCc1ccccc1
